This is an account of results in patent US20260356869A1, “TRANSITION METAL COMPLEXES FOR MRI APPLICATIONS AND METHODS OF USE” (Yale University, priority 2022, published 2026).

Where two headings read alike, the source gives them in different places.

Data set [1] can be described thus: 23Na-NMR sodium sensing (shiftability and broadening). Type of data set: physicochemical. To be noted: 150 mM NaCl; for Shiftability (Sc): negative = downfield, positive = upfield from unshifted sodium signal. The text has this:
(§1) The synthesized complexes are characterized for water proton relaxivities with different concentrations of complexes, as well as their proton sensing (with BIRDS and CEST) and sodium sensing (with ^23Na-MRSI) properties on a Bruker AVANCE III HD 500 vertical-bore spectrometer (Bruker, Billerica, MA, USA) interfaced with Bruker TopSpin v3.2 software.
Sodium-23 (^23Na), which has 100% natural abundance, is also visible by magnetic resonance (I=3/2) and provides the second-strongest signal among biological ions after proton. […] Sodium (Na^+) concentration is normally low intracellularly (~10 mM) and high in blood and extracellular spaces (~150 mM), producing a strong transmembrane Nat gradient (ΔNa^+mem≈140 mM) and a weak transendothelial Na^+ gradient (ΔNa^+end≈0 mM). Distributions of sodium ion (Na^+) across biological membranes are tightly regulated, and thus variations of Nat across compartments often imply pathological states.
In vitro experiments are performed using concentric NMR tubes (spherical and cylindrical; Wilmad-LabGlass, Vineland, NJ, USA). One compartment (inner) contained 150 mM NaCl and the other (outer) contained the same but with varying amounts of transition metal complexes and 10% v/v ^2H2O to lock the spectrometer frequency using the ^2H2O signal. Each solution is pH-adjusted using HCl or KOH to give five different pH values. ^23Na-NMR spectra are collected on the same Bruker system as for ^1H NMR. […] Spectra are analyzed applying 10 Hz line broadening and manual zeroth- and first-order phasing. The chemical shift and line width of the shifted peak are measured using the “peakw” function on TopSpin.

The nature of data set [2]: BIRDS characterization: pH and temperature sensitivity of non-exchangeable (and -NH) proton chemical shifts by 1H NMR. Type of data set: physicochemical. To be noted: for T sensitivity, -NH proton: -NH proton (exchangeable), 298 K to 318 K. As to the method: as §1
The chemical shifts of proton resonances are measured relative to the water resonance (4.7 ppm). Temperature and pH sensitive non-exchangeable proton resonances in each complex are chosen for BIRDS detection. The temperature and pH dependences of proton chemical shifts are fitted to second-order polynomial equations:
δ=a+b pH+cT+dpH^2+eT^2+f pHT Eq. 1
Where, the coefficients a-f are obtained from the fit. The relaxation times (T1 and T2) of these resonances are measured at 35 °C using typical inversion-recovery and spin-echo methods, respectively.

For data set [3] the following is noted: reported value, cited from earlier work; for Shiftability (Sc): negative = downfield, positive = upfield from unshifted sodium signal.
For data set [4] the following is noted: literature value, cited from earlier work.
The mark [5] stands for this setting: 10 mM, pH 6.2-8.0, 298 K to 318 K, 11.7 T.
[6] abbreviates: proton B, 10 mM, pH 6.2-8.0, 298 K to 318 K, 11.7 T.
Setting [7] is: proton A (@56), comparator thulium complex.
The mark [8] stands for this setting: proton B (@23), comparator thulium complex.
Where [9] appears, read: proton C (@-20), comparator thulium complex.

In the case of `O=C(CN1CCN(CC(=O)NCP(=O)(O)O)CCN(CC(=O)NCP(=O)(O)O)CCN(CC(=O)NCP(=O)(O)O)CC1)NCP(=O)(O)O.[Co+2]` [CoDOTA-4AMP^6-], in data set [1], the “Broadening (βc)” value was 0.022 ppm/mM and the “Shiftability (Sc)” value is given as -0.172 ppm/mM. For the same molecule, the “T sensitivity, -NH proton” value in data set [2] (11.7 T) is listed as 0.161 ppm/° C. The “T sensitivity, non-exchangeable proton A” value in data set [2] (setting [5]) is listed as 0.576 ppm/° C.

As to `O=P(O)(O)CN1CCN(CP(=O)(O)O)CCN(CP(=O)(O)O)CCN(CP(=O)(O)O)CC1.[Gd+3]` [GdDOTP^5-], in data set [3], the “Broadening (βc)” value was 0.036 ppm/mM and the “Shiftability (Sc)” value was -0.040 ppm/mM.

In the case of `O=P(O)(O)CN1CCN(CP(=O)(O)O)CCN(CP(=O)(O)O)CC1.[Gd+3]` [GdNOTP^3-], in data set [3], the “Broadening (βc)” value is on record as 0.0117 ppm/mM and the “Shiftability (Sc)” value was -0.0435 ppm/mM.

Consider `O=P(O)(O)CN1CCN(CP(=O)(O)O)CCN(CP(=O)(O)O)CCN(CP(=O)(O)O)CC1.[Co+2]` [CODOTP^6-], for which, in data set [1], the “Broadening (βc)” value is on record as 0.016 ppm/mM and the “Shiftability (Sc)” value is given as -0.207 ppm/mM. In addition, in data set [2] (setting [5]), the “T sensitivity, non-exchangeable proton A” value stood at 0.434 ppm/° C; the “pH sensitivity, non-exchangeable proton A” value stood at 6.0 ppm/pH unit; the “T sensitivity, non-exchangeable proton C” value was found to be 0.186 ppm/° C. Besides, in data set [2] (setting [6]), the “T sensitivity, non-exchangeable proton B” value was 0.234 ppm/° C and the “pH sensitivity, non-exchangeable proton B” value was determined as 1.42 ppm/pH unit.

`O=P(O)(O)CN1CCN(CP(=O)(O)O)CCN(CP(=O)(O)O)CCN(CP(=O)(O)O)CC1.[Tm+3]` [TmDOTP^5-]: in data set [3], the “Broadening (βc)” value is reported as 0.042 ppm/mM and the “Shiftability (Sc)” value is recorded as -2.03 ppm/mM. Also, in data set [4], the “T sensitivity, non-exchangeable proton H2” value is -0.6 ppm/° C; the “pH sensitivity, non-exchangeable proton H2” value was 4.2 ppm/pH unit; the “T sensitivity, non-exchangeable proton H3” value is given as -0.5 ppm/° C; the “pH sensitivity, non-exchangeable proton H3” value is 3.6 ppm/pH unit. For the same molecule, in data set [4], the “T sensitivity, non-exchangeable proton H6” value is on record as 1.1 ppm/° C and the “pH sensitivity, non-exchangeable proton H6” value was -3.9 ppm/pH unit.

On to `O=P(O)(O)CN1CCN(CP(=O)(O)O)CCN(CP(=O)(O)O)CCN(CP(=O)(O)O)CC1.[Fe+2]` [FeDOTP^6-], for which, in data set [1], the “Broadening (βc)” value amounted to 0.023 ppm/mM and the “Shiftability (Sc)” value is reported as “+0.688 ppm/mM”. In data set [2] (setting [5]), the “T sensitivity, non-exchangeable proton A” value is given as 0.345 ppm/° C and the “T sensitivity, non-exchangeable proton C” value is listed as 0.045 ppm/° C. Further, the “T sensitivity, non-exchangeable proton B” value in data set [2] (setting [6]) was determined as 0.130 ppm/° C.

Consider `O=C(CN1CCN(CC(=O)NCP(=O)(O)O)CCN(CC(=O)NCP(=O)(O)O)CCN(CC(=O)NCP(=O)(O)O)CC1)NCP(=O)(O)O.[Tm+3]` [TmDOTA-4AMP^5-], for which, in data set [4] (proton H1), the “T sensitivity, non-exchangeable proton H1” value is listed as 0.54 ppm/° C and the “pH sensitivity, non-exchangeable proton H1” value is listed as 1.8 ppm/pH unit. In data set [4], the “T sensitivity, non-exchangeable proton H2” value was -0.24 ppm/° C; the “pH sensitivity, non-exchangeable proton H2” value is given as -0.63 ppm/pH unit; the “T sensitivity, non-exchangeable proton H3” value is -0.188 ppm/° C; the “pH sensitivity, non-exchangeable proton H3” value is -0.25 ppm/pH unit. In data set [4], the “T sensitivity, non-exchangeable proton H6” value was 0.45 ppm/° C and the “pH sensitivity, non-exchangeable proton H6” value is reported as 1.2 ppm/pH unit. Besides, in data set [4] (proton H4), the “T sensitivity, non-exchangeable proton H4” value is recorded as -1.49 ppm/° C and the “pH sensitivity, non-exchangeable proton H4” value was -3.9 ppm/pH unit. Also, in data set [4] (proton H8), the “T sensitivity, non-exchangeable proton H8” value was 0.170 ppm/° C and the “pH sensitivity, non-exchangeable proton H8” value is -4.0 ppm/pH unit.

With `O=P(O)(O)CN1CCN(CP(=O)(O)O)CCN(CP(=O)(O)O)CC1.[Tm+3]` [TmNOTP^3-], in data set [3], the “Broadening (βc)” value is reported as 0.018 ppm/mM and the “Shiftability (Sc)” value is recorded as -0.568 ppm/mM. Besides, in data set [2] (setting [7]), the “T sensitivity, non-exchangeable proton A (@56)” value was 0.351 ppm/° C and the “pH sensitivity, non-exchangeable proton A (@56)” value is reported as -2.58 ppm/pH unit. In data set [2] (setting [8]), the “T sensitivity, non-exchangeable proton B (@23)” value is 0.140 ppm/° C and the “pH sensitivity, non-exchangeable proton B (@23)” value is -0.56 ppm/pH unit. In addition, in data set [2] (setting [9]), the “T sensitivity, non-exchangeable proton C (@-20)” value was -0.250 ppm/° C and the “pH sensitivity, non-exchangeable proton C (@-20)” value is reported as 1.88 ppm/pH unit.

With `O=C(CN1CCN(CC(=O)NCP(=O)(O)O)CCN(CC(=O)NCP(=O)(O)O)CCN(CC(=O)NCP(=O)(O)O)CC1)NCP(=O)(O)O.[Fe+2]` [FeDOTA-4AMP^6-], in data set [1], the “Broadening (βc)” value turned out to be 0.020 ppm/mM and the “Shiftability (Sc)” value is recorded as -0.477 ppm/mM. Moreover, the “T sensitivity, -NH proton” value in data set [2] (11.7 T) worked out at 0.158 ppm/° C. Further, the “T sensitivity, non-exchangeable proton A” value in data set [2] (setting [5]) was 0.413 ppm/° C. Further, the “T sensitivity, non-exchangeable proton E” value in data set [2] (proton E, 10 mM, pH 6.2-8.0, 298 K to 318 K, 11.7 T) is listed as -0.306 ppm/° C.

Turning to `O=P(O)(O)CN1CCN(CP(=O)(O)O)CCN(CP(=O)(O)O)CC1.[Co+2]` [CONOTP^4-], in data set [1], the “Broadening (βc)” value was found to be 0.013 ppm/mM and the “Shiftability (Sc)” value was “+0.140 ppm/mM”. Besides, in data set [2] (setting [5]), the “T sensitivity, non-exchangeable proton A” value is reported as 0.948 ppm/° C and the “pH sensitivity, non-exchangeable proton A” value turned out to be 6.20 ppm/pH unit.

Consider `O=P(O)(O)CN1CCN(CP(=O)(O)O)CCN(CP(=O)(O)O)CC1.[Fe+2]` [FeNOTP^4-], for which, in data set [1], the “Broadening (βc)” value turned out to be 0.015 ppm/mM and the “Shiftability (Sc)” value is “+0.318 ppm/mM”. Moreover, the “T sensitivity, non-exchangeable proton A” value in data set [2] (setting [5]) came to 0.240 ppm/° C. Further, the “T sensitivity, non-exchangeable proton B” value in data set [2] (setting [6]) is 0.149 ppm/° C.
